The test has as its target T1, HPK1 (Homo sapiens, UniProt Q92918).
T1 construct: A HiBiT tag was introduced by CRISPR on the N terminus of HPK1 in Jurkat cells; host or cells: Jurkat cells (ATCC TIB-152), monoclonal line with CRISPR knock-in of HiBiT at the endogenous HPK1 locus
Nature of the test: HPK1 Cellular HiBit Degradation Assay. To be noted: HiBiT HPK1 Jurkat cells, 24 hrs; for DC50: concentration at which 50% of HPK1 was remaining, read-out: DC50 Category; for Dmax: Jurkat, maximum degradation vs DMSO vehicle control, read-out: Dmax Category. Type of test: cell-based. A digest of the protocol: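 Jurkat cells with CRISPR N-terminal HiBiT-tagged endogenous HPK1 treated 24 h at 37 °C with 11-point, 3.16-fold dilutions (10 uM to 0.1 nM final). HiBiT lytic luminescence gives % HPK1 remaining versus DMSO, with parental cells as background. Four-parameter fit yields DC50; Dmax = 100 minus lowest % remaining.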
In general terms: With HiBiT, luminescence reflects the tagged protein that the partner subunit can reach.

Some results are limits rather than exact numbers.

We go through 13 compounds from US12091426B2, “Bifunctional degraders of hematopoietic progenitor kinase and therapeutic uses thereof” (Nurix Therapeutics, Inc., priority 2021, dated 2024).

T1 sequence (Q92918 whole entry): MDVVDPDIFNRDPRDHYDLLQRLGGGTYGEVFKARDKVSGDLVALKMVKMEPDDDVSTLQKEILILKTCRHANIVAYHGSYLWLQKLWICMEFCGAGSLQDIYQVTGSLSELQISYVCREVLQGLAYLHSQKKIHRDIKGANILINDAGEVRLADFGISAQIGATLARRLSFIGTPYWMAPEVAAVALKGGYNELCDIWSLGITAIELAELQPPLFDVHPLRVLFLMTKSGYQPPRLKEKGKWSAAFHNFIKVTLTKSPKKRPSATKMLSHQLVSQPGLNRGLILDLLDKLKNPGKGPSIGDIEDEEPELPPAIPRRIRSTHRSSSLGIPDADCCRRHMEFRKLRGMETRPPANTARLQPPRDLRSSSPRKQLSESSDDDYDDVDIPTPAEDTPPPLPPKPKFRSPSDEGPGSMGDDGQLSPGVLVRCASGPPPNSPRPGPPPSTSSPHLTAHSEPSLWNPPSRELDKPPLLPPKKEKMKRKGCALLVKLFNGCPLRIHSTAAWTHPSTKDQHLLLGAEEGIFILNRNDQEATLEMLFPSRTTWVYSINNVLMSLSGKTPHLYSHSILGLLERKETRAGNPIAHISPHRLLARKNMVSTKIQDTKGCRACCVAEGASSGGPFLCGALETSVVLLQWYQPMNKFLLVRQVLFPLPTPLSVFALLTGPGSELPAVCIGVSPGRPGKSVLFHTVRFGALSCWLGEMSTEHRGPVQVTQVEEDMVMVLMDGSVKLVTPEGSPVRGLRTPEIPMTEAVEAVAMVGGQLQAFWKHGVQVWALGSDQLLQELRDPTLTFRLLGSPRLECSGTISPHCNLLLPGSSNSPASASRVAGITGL

Regarding `CC(C)n1cnc2cc(-c3ccc4c(c3)N([C@H]3C[C@@H](N5CCCCC5)C3)C(=O)C43CCN(C(=O)CN4CCN(C(=O)C5CCN(c6ccc(C7CCC(=O)NC7=O)cn6)CC5)CC4)CC3)nc(NC3CC3)c21` (mixture of isomers) [Example 243, (3RS)-3-(6-{4-[4-(2-{6-[4-(cyclopropylamino)-3-(propan-2-yl)-3H-imidazo[4,5-c]pyridin-6-yl]-2-oxo-1-[(1S,3S)-3-(piperidin-1-yl)cyclobutyl]-1,2-dihydrospiro[indole-3,4′-piperidin]-1′-yl}-2-oxoethyl)piperazine-1-carbonyl]piperidin-1-yl}pyridin-3-yl)piperidine-2,6-dione], the DC50 (usually the concentration giving 50% degradation) is less than 100 nM and the Dmax – broadly, the largest share of the target that was removed – was in the range of 70 to 85%.

As to `CC(C)n1cnc2cc(-c3ccc4c(c3)N([C@H]3C[C@@H](N5CCCCC5)C3)C(=O)C43CCN(C(=O)[C@@H]4CCN(C(=O)[C@H]5CC[C@H](Oc6ccc(N7CCC(=O)NC7=O)cn6)CC5)C4)CC3)nc(Nc3ccncc3F)c21` [Example 22, 1-(6-{[(1R,4R)-4-[(3R)-3-[(6-{4-[(3-fluoropyridin-4-yl)amino]-3-(propan-2-yl)-3H-imidazo[4,5-c]pyridin-6-yl}-2-oxo-1-[(1S,3S)-3-(piperidin-1-yl)cyclobutyl]-1,2-dihydrospiro[indole-3,4′-piperidin]-1′-yl)carbonyl]pyrrolidine-1-carbonyl]cyclohexyl]oxy}pyridin-3-yl)-1,3-diazinane-2,4-dione], the DC50 is less than 100 nM and the Dmax lay in the range of 70 to 85%.

As to `CC(C)n1cnc2cc(-c3ccc4c(c3)N([C@H]3C[C@@H](N5CCCCC5)C3)C(=O)C43CCN(C(=O)C4CCN(C(=O)C5CCN(c6ccc(C7CCC(=O)NC7=O)cc6)CC5)CC4)CC3)nc(Nc3ccncc3F)c21` (stereo partly drawn) [Example 68, 3-(4-(4-(4-(6-(4-((3-fluoropyridin-4-yl)amino)-3-isopropyl-3H-imidazo[4,5-c]pyridin-6-yl)-2-oxo-1-((1S,3S)-3-(piperidin-1-yl)cyclobutyl)spiro[indoline-3,4′-piperidine]-1′-carbonyl)piperidine-1-carbonyl)piperidin-1-yl)phenyl)piperidine-2,6-dione], the DC50 is less than 100 nM and the Dmax was 70 to 85%.

As for `CC(C)n1cnc2cc(-c3ccc4c(c3)N([C@H]3C[C@@H](N5CCCCC5)C3)C(=O)C43CCN(C(=O)C4CCN(C(=O)C5CCN(c6ccc7c(c6)C(=O)N(C6CCC(=O)NC6=O)C7=O)CC5)CC4)CC3)nc(Nc3ccccc3F)c21` (mixture of isomers) [Example 87, 2-[(3RS)-2,6-dioxopiperidin-3-yl]-5-(4-{4-[(6-{4-[(2-fluorophenyl)amino]-3-(propan-2-yl)-3H-imidazo[4,5-c]pyridin-6-yl}-2-oxo-1-[(1S,3S)-3-(piperidin-1-yl)cyclobutyl]-1,2-dihydrospiro[indole-3,4′-piperidin]-1′-yl)carbonyl]piperidine-1-carbonyl}piperidin-1-yl)-2,3-dihydro-1H-isoindole-1,3-dione], the DC50 is less than 100 nM and the Dmax is 70 to 85%.

As to `CC(C)n1cnc2cc(-c3ccc4c(c3)N([C@H]3C[C@@H](N5CCCCC5)C3)C(=O)C43CCN(C(=O)C4CCN(C(=O)C5CCN(c6ccc(C7CCC(=O)NC7=O)c(F)c6)CC5)CC4)CC3)nc(NC3CC3)c21` (mixture of isomers) [Example 237, (3RS)-3-(4-{4-[4-({6-[4-(cyclopropylamino)-3-(propan-2-yl)-3H-imidazo[4,5-c]pyridin-6-yl]-2-oxo-1-[(1S,3S)-3-(piperidin-1-yl)cyclobutyl]-1,2-dihydrospiro[indole-3,4′-piperidin]-1′-yl}carbonyl)piperidine-1-carbonyl]piperidin-1-yl}-2-fluorophenyl)piperidine-2,6-dione], the DC50 is less than 100 nM and the Dmax lay within 70 to 85%.

`CC(C)n1cnc2cc(-c3ccc4c(c3)N([C@H]3C[C@@H](N5CCCCC5)C3)C(=O)C43CCN(C(=O)N4CCN(C(=O)C5CCN(c6ccc(C7CCC(=O)NC7=O)cn6)CC5)CC4)CC3)nc(NC3CC3)c21` (some centres unmarked) [Example 180]: the DC50 is less than 100 nM and the Dmax fell in the range of 70 to 85%.

`CC(C)n1cnc2cc(-c3ccc4c(c3)N([C@H]3C[C@@H](N5CCCCC5)C3)C(=O)C43CCN(C(=O)N4CCC(C(=O)N5CCN(c6ccc(C7CCC(=O)NC7=O)cn6)CC5)CC4)CC3)nc(NC3CC3)c21` (stereo partly drawn) [Example 181, 3-(6-{4-[1-({6-[4-(cyclopropylamino)-3-(propan-2-yl)-3H-imidazo[4,5-c]pyridin-6-yl]-2-oxo-1-[(1S,3S)-3-(piperidin-1-yl)cyclobutyl]-1,2-dihydrospiro[indole-3,4′-piperidin]-1′-yl}carbonyl)piperidine-4-carbonyl]piperazin-1-yl}pyridin-3-yl)piperidine-2,6-dione]: the DC50 is 100 to 500 nM and the Dmax is 50 to 70%.

For the compound `CC(C)n1cnc2cc(-c3ccc4c(c3)N([C@H]3C[C@@H](N5CCCCC5)C3)C(=O)C43CCN(C(=O)C4CCN(C(=O)[C@H]5CC[C@H](Nc6ccc(C7CCC(=O)NC7=O)cc6)CC5)CC4)CC3)nc(Nc3ccccc3F)c21` (mixture of isomers) [Example 54, (3RS)-3-(4-{[(1R,4R)-4-{4-[(6-{4-[(2-fluorophenyl)amino]-3-(propan-2-yl)-3H-imidazo[4,5-c]pyridin-6-yl}-2-oxo-1-[(1S,3S)-3-(piperidin-1-yl)cyclobutyl]-1,2-dihydrospiro[indole-3,4′-piperidin]-1′-yl)carbonyl]piperidine-1-carbonyl}cyclohexyl]amino}phenyl)piperidine-2,6-dione], the DC50 was less than 100 nM and the Dmax was in the range of 70 to 85%.

For `CC(C)n1cnc2cc(-c3ccc4c(c3)N([C@H]3C[C@@H](N5C6CCC5COC6)C3)C(=O)C43CCN(C(=O)C4(C)CCN(C(=O)C5CCN(c6ccc(C7CCC(=O)NC7=O)cn6)CC5)CC4)CC3)nc(NC3CC3)c21` (mixture of isomers) [Example 215, (3RS)-3-(6-{4-[4-({6-[4-(cyclopropylamino)-3-(propan-2-yl)-3H-imidazo[4,5-c]pyridin-6-yl]-2-oxo-1-[(1S,3S)-3-{3-oxa-8-azabicyclo[3.2.1]octan-8-yl}cyclobutyl]-1,2-dihydrospiro[indole-3,4′-piperidin]-1′-yl}carbonyl)-4-methylpiperidine-1-carbonyl]piperidin-1-yl}pyridin-3-yl)piperidine-2,6-dione], the half-maximal degradation concentration (DC50) was less than 100 nM and the Dmax was 70 to 85%.

Consider `CC(C)n1cnc2cc(-c3ccc4c(c3)N([C@H]3C[C@@H](N5CCCCC5)C3)C(=O)C43CCN(C(=O)[C@@H]4CCN(C(=O)[C@H]5CC[C@H](Nc6ccc(C7CCC(=O)NC7=O)cn6)CC5)C4)CC3)nc(Nc3ccccc3F)c21` (mixture of isomers) [Example 6, (3RS)-3-(6-{1[(1R,4R)-4-[(3R)-3-[(6-{4-[(2-fluorophenyl)amino]-3-(propan-2-yl)-3H-imidazo[4,5-c]pyridin-6-yl}-2-oxo-1-[(1S,3S)-3-(piperidin-1-yl)cyclobutyl]-1,2-dihydrospiro[indole-3,4′-piperidin]-1′-yl)carbonyl]pyrrolidine-1-carbonyl]cyclohexyl]amino}pyridin-3-yl)piperidine-2,6-dione], for which the DC50 is 100 to 500 nM and the Dmax lay in the range of 70 to 85%.

`CC(C)n1cnc2cc(-c3ccc4c(c3)N([C@H]3C[C@@H](N5CCCCC5)C3)C(=O)C43CCN(C(=O)C4(C)CCN(C(=O)C5CCN(c6ccc(C7CCC(=O)NC7=O)cn6)CC5)CC4)CC3)nc(NC3CCOCC3)c21` (mixture of isomers) [Example 214, (3RS)-3-[6-(4-{4-methyl-4-[(6-{4-[(oxan-4-yl)amino]-3-(propan-2-yl)-3H-imidazo[4,5-c]pyridin-6-yl}-2-oxo-1-[(1S,3S)-3-(piperidin-1-yl)cyclobutyl]-1,2-dihydrospiro[indole-3,4′-piperidin]-1′-yl)carbonyl]piperidine-1-carbonyl}piperidin-1-yl)pyridin-3-yl]piperidine-2,6-dione]: the 50% degradation concentration (DC50) is less than 100 nM and the maximal degradation (Dmax) is 70 to 85%.

With `Cc1cc(C2CCC(=O)NC2=O)ccc1O[C@H]1CC[C@H](C(=O)N2CCC(C)(C(=O)N3CCC4(CC3)C(=O)N([C@H]3C[C@@H](N5CCCCC5)C3)c3cc(-c5cc6ncn(C(C)C)c6c(NC6CC6)n5)ccc34)CC2)CC1` (mixture of isomers) [Example 156, (3RS)-3-(3-methyl-4-{[(1R,4R)-4-[4-({6-[4-(cyclopropylamino)-3-isopropylimidazo[4,5-c]pyridin-6-yl]-2-oxo-1-[(1S,3S)-3-(piperidin-1-yl)cyclobutyl]spiro[indole-3,4′-piperidin]-1′-yl}carbonyl)-4-methylpiperidine-1-carbonyl]cyclohexyl]oxy}phenyl)piperidine-2,6-dione], the DC50 is 100 to 500 nM and the greatest degradation seen (Dmax) was greater than 85%.

Take `CC(C)n1cnc2cc(-c3ccc4c(c3)N([C@H]3C[C@@H](N5CCCCC5)C3)C(=O)C43CCN(C(=O)C4(C)CCN(C(=O)C5CCN(c6ccc(C7CCC(=O)NC7=O)cn6)CC5)CC4)CC3)nc(N[C@H]3C[C@@H](C#N)C3)c21` (stereo partly drawn) [Example 174, (1S,3S)-3-({6-[1′-(1-{1-[5-(2,6-dioxopiperidin-3-yl)pyridin-2-yl]piperidine-4-carbonyl}-4-methylpiperidine-4-carbonyl)-2-oxo-1-[(1S,3S)-3-(piperidin-1-yl)cyclobutyl]-1,2-dihydrospiro-[indole-3,4′-piperidin]-6-yl]-3-(propan-2-yl)-3H-imidazo[4,5-c]pyridin-4-yl}amino)cyclobutane-1-carbonitrile]: the DC50 was less than 100 nM and the Dmax is greater than 85%.
